This is an account of results in patent publication US8058307B2, “Alcanoic acid amides substituted by saturated O-heterocycles” (Novartis AG, priority 2005, dated 2011).

The assay deals with T1, renin (Homo sapiens, UniProt P00797).
T1 construct: This test measures the formation of angiotensin I in human plasma; from tissue; host or cells: human plasma
T1 sequence (P00797 67-406): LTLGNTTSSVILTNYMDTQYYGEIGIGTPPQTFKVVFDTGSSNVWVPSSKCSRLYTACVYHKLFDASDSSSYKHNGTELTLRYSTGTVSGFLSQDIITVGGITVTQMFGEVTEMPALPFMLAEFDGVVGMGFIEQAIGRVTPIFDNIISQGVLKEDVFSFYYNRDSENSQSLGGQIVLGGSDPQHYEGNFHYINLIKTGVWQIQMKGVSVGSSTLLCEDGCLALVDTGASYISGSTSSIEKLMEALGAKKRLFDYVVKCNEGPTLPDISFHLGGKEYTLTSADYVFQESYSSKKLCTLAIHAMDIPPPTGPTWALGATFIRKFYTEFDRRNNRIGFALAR
Description: in vitro test of Nussberger et al.: formation of angiotensin I in human plasma, radio-immunoassay. Format: biochemical. The note with it: concentration which reduces the formation of angiotensin I in human plasma by 50%. As for the experimental part: The effect of renin inhibitors is detected inter alia experimentally by means of in vitro tests where the reduction in the formation of angiotensin I is measured in various systems (human plasma, purified human renin together with synthetic or natural renin substrate). The following in vitro test of Nussberger et al. (1987) J. Cardiovascular Pharmacol., Vol. 9, pp. 39-44, is used inter alia. This test measures the formation of angiotensin I in human plasma. The amount of angiotensin I formed is determined in a subsequent radio-immunoassay. The effect of inhibitors on the formation of angiotensin I is tested in this system by adding various concentrations of these substances. The IC50 is defined as the concentration of the particular inhibitor which reduces the formation of angiotensin I by 50%.

For `COCCCOc1cc(C[C@@H](C[C@H](N)[C@@H](O)C[C@H](C(=O)NC[C@H]2CCCO2)C(C)C)C(C)C)ccc1OC` [Example 1, 5-Amino-4-hydroxy-2-isopropyl-7-[4-methoxy-3-(3-methoxypropoxy)benzyl]-8-methyl-N-(tetrahydrofuran-2(R)-ylmethyl)nonamide], the IC50 turned out to be 2.6 nM.

As usually defined, the IC50 is the midpoint of a concentration-inhibition curve.
